Results on seven compounds are retold here after ChEMBL document CHEMBL1201862, “PubChem BioAssay data set” (2004).

Holding throughout (assay): inhibition of tumour cell growth, NCI panel, 48 h
Test [1] has as its system NCI-H226.
Test [2] deals with UO-31.
Test [3] deals with HCT-116.
Test [4] concerns OVCAR-8.
In test [5] the test system is BT-549.
Test [6] relates to TK-10.
The subject of test [7] is SK-OV-3.
Test [8] has as its system KM12.
Test [9] has as its system UACC-62.
Test [10] concerns Malme-3M.
In test [11] the test system is OVCAR-3.
In test [12] the test system is HCT-15.
Test [13] concerns SF-295.
Test [14] concerns EKVX.
Test [15] has as its system HCC 2998.
The subject of test [16] is SF-539.
The test system of test [17] is M14.
For test [18], the system named is OVCAR-5.
In test [19] the test system is A549.
In test [20] the test system is DU-145.

Structures are written as SMILES.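 These data come from cells grown in 96-well plates and exposed to compound for 48 hours at five concentrations. Abbreviation: GI50, concentration required for 50% inhibition of growth.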 Calls of active or inactive are those of the source. No stated cut-off is given here; in the data, active = GI50 up to about 1.1 µM and inactive = higher.

As for `CC12CN(CC[N+](C)(C)C)CC1(C)C1CCC2O1` (stereo not given), the GI50 in [1], in [2], in test [3], in test [4], in [5] and in test [6] was > 100 µM (inactive) throughout. The GI50 in [7] is > 100 µM (inactive); in test [8], > 100 µM (inactive); in [9], > 100 µM (inactive); in test [10], > 100 µM (inactive); in [11], > 100 µM (inactive); in [12], above 100 µM. Further, the GI50 in test [13], in test [14], in test [15], in test [16], in test [17] and in test [18] was > 100 µM (inactive) throughout. For the same compound, the GI50 in [19] and in test [20] was > 100 µM (inactive) throughout.

Regarding `CCN(CC)C1Oc2cc3c(cc2C(c2ccc(OC)cc2)C1C)OCO3` (stereo not given), the GI50 is 23 µM (inactive) in test [1]; 19.7 µM (inactive) in [2]; 15.8 µM (inactive) in test [3]; 19.5 µM (inactive) in test [4]; 20.8 µM (inactive) in test [5]; 18.7 µM (inactive) in test [6]. Further, the GI50 in test [7] is 40.2 µM (inactive); in [8], 20 µM (inactive); in test [9], 19.1 µM (inactive); in test [10], 18.3 µM (inactive); in test [11], 18.2 µM (inactive); in test [12], 18.9 µM. Besides, the GI50 was 21.7 µM (inactive) in test [13]; 18.3 µM (inactive) in test [14]; 19 µM (inactive) in test [15]; 20.2 µM (inactive) in test [16]; 21.2 µM (inactive) in [17]; 26.2 µM (inactive) in test [18]. Moreover, the GI50 is 22.6 µM (inactive) in test [19] and 25.6 µM (inactive) in test [20].

Take `C=CCN1CCC(OC(=O)C(O)(C#CC)C2CCCC2)CC1` (stereo not given): the GI50 in test [1], in test [2], in [3], in test [4], in test [5] and in test [6] was > 100 µM (inactive) each time. The GI50 in test [7] is > 100 µM (inactive); in test [8], > 100 µM (inactive); in test [9], > 100 µM (inactive); in test [10], > 100 µM (inactive); in test [11] it was > 100 µM (inactive); in [12], above 100 µM. For the same compound, the GI50 in test [13], in [14], in [15], in test [16], in test [17] and in test [18] was > 100 µM (inactive) in each case. Moreover, the GI50 in test [19] and in [20] was > 100 µM (inactive) throughout.

Consider `CC(=O)O[C@H]1C(=O)[C@@]2(C)[C@H]([C@H](OC(=O)c3ccccc3)[C@]3(O)C[C@H](OC(=O)[C@H](O)[C@@H](NC(=O)c4cccc(N=[N+]=[N-])c4)c4ccccc4)C(C)=C1C3(C)C)[C@]1(OC(C)=O)CO[C@@H]1C[C@@H]2O`, for which the GI50 was 0.00855 µM (active) in test [1]; 1.33 µM (inactive) in [2]; < 0.0025 µM (active) in test [3]; 0.00798 µM (active) in test [4]; 0.0364 µM (active) in test [5]; 0.117 µM (active) in test [6]. The GI50 is 0.0122 µM (active) in test [7]; 0.0038 µM (active) in [8]; 0.00731 µM (active) in test [9]; 0.00711 µM (active) in test [10]; < 0.0025 µM (active) in test [11]; 0.662 µM in [12]. Besides, the GI50 in test [13] is 0.0247 µM (active); in [14], > 7.59 µM (inactive); in test [15], 0.0634 µM (active); in test [16], < 0.0025 µM (active); in test [17] it was 0.00908 µM (active); in [18], 0.00893 µM (active). In addition, the GI50 in [19] was 0.0108 µM (active); in [20], 0.0208 µM (active).

For the compound `CCCSc1ccc2[nH]c(N3C(=O)/C(=C/c4ccc(SC)cc4)N=C3c3ccccc3)cc2c1`, the GI50 is > 50 µM (inactive) in test [1]; > 35.8 µM (inactive) in test [2]; 19.9 µM (inactive) in test [3]; > 44.6 µM (inactive) in test [4]; > 38.7 µM (inactive) in [5]; 29 µM (inactive) in test [6]. Moreover, the GI50 was 41.5 µM (inactive) in test [7]; 11 µM (inactive) in test [8]; 24.7 µM (inactive) in test [9]; 40.6 µM (inactive) in [10]; 24.6 µM (inactive) in test [11]; 22.1 µM in test [12]. Also, the GI50 in test [13] was 29.7 µM (inactive); in test [14], 18.2 µM (inactive); in test [15] it was 14.1 µM (inactive); in test [16], 14 µM (inactive); in test [17], 21.4 µM (inactive); in test [18], > 50 µM (inactive). Moreover, the GI50 in test [19] was 19.5 µM (inactive); in test [20], > 50 µM (inactive).

For `Cc1cs/c(=N/c2ccccc2)n1CCC(O)(P(=O)(O)O)P(=O)(O)O`, the GI50 in test [1], in [2], in test [3], in test [4], in test [5] and in [6] was > 100 µM (inactive) throughout. The GI50 in test [7] is > 100 µM (inactive); in [8] it was > 100 µM (inactive); in test [9], > 100 µM (inactive); in test [10] it was > 100 µM (inactive); in [11], > 100 µM (inactive); in test [12] it was 63.1 µM. The GI50 in test [13], in test [14], in test [15], in [16], in test [17] and in [18] was > 100 µM (inactive) throughout. The GI50 in [19] and in test [20] was > 100 µM (inactive) each time.

Take `N#CC1=C(N)OC2=C(CCCc3ccc([N+](=O)[O-])cc32)C1c1ccc(Cl)cc1` (stereo not given): the GI50 is 17 µM (inactive) in test [1]; 3.3 µM (inactive) in test [2]; 3.3 µM (inactive) in [3]; 6.58 µM (inactive) in test [4]; 17.4 µM (inactive) in test [5]; 10.6 µM (inactive) in test [6]. For the same compound, the GI50 is 13.7 µM (inactive) in [7]; 5.58 µM (inactive) in test [8]; 5.02 µM (inactive) in [9]; 11.3 µM (inactive) in [10]; 6.34 µM (inactive) in [11]; 3.12 µM in [12]. In addition, the GI50 in [13] was 11 µM (inactive); in test [14], 4.43 µM (inactive); in test [15], 8.02 µM (inactive); in test [16], 8.97 µM (inactive); in test [17] it was 16.4 µM (inactive); in [18], 16.6 µM (inactive). In addition, the GI50 in test [19] was 6.7 µM (inactive); in test [20], 8.51 µM (inactive).
